From article PMC5374420, “In Search of Small Molecule Inhibitors Targeting the Flexible CK2 Subunit Interface” (Pharmaceuticals, 2017) come the findings set out here.

The structures appear in SMILES notation. Where a SMILES comes first, the peptide text is derived from it. Bridges are numbered along the chain shown (N, C = ends).

One assay deals with T1, CK2 holoenzyme (Homo sapiens, UniProt P68400).
T1 construct: made in house
As to the kind of experiment: CK2 kinase assay with CK2β-independent peptide substrate. Format: biochemical. Conditions: CK2 holoenzyme 100 nM, 15 min at 4 °C; at high TAT-Pc 13 concentrations. The method, then:
Figure 4 Inhibitory activity of a TAT-Pc analogue in vitro. (A) CK2 holoenzyme (100 nM) was incubated in the presence of increasing concentrations of TAT-Pc 13 for 15 min at 4 °C. CK2 activity was then determined with CK2β-dependent or independent peptide substrates; (B) [^35S]-labeled CK2α was incubated with biotinylated MBP-CK2β immobilized on streptavidin coated plates (preformed complex) in the absence (1) or presence (2) of TAT-Pc 13. Alternatively, [^35S]-labeled CK2α was incubated with TAT-Pc 13 (3) or random TAT-Pc 13 (4) and then with immobilized biotinylated MBP-CK2β. After washing, the amount of [^35S]-labeled CK2α remaining in the complex was determined by radioactivity counting. Representative data shown from two independent experiments. Results are presented as mean ± s.d. of triplicates.
CK2 kinase assays were performed in a phosphorylation buffer containing recombinant CK2α (36 ng) or recombinant CK2 holoenzyme (50 ng) and a mixture containing 10 mM MgCl2 and 1 μCi of [γ-32P]ATP and 0.15 M NaCl in the presence of 0.2 mM of the CK2β-independent substrate […] [28] or the CK2β-dependent substrate […] [18]. […] Kinase reactions were terminated by the addition of 60 μL of 4% trichloroacetic acid and sample adsorption on phosphocellulose P81 paper, which were washed in 0.5% phosphoric acid and counted in a scintillation counter.

In assay [1] the target is T2, CK2α/CK2β subunit interaction in MCF-10A cells (Homo sapiens, UniProt P68400).
T2 construct: endogenous in cells; host or cells: MCF-10A (WT)
T2 sequence (P68400 whole entry): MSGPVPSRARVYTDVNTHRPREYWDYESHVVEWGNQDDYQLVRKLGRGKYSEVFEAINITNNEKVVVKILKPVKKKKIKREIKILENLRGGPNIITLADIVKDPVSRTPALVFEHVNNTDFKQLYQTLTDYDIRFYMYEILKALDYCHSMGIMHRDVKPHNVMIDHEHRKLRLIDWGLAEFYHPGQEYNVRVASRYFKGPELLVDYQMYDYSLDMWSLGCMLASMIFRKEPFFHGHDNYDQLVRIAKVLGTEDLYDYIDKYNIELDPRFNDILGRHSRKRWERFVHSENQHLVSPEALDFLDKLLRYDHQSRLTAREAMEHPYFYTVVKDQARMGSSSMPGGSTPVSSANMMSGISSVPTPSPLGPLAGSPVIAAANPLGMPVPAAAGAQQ
As to the kind of experiment: In situ proximity ligation assay of CK2α and CK2β. Conditions: 50 µM, 6 h, WT MCF-10A cells; positive control 4.8 ± 1.5 dots/cell. Format: cell-based. Here is the method:
Figure 7 Uptake and cellular effects of TAT-Pc 13. (A) kinetic of TAMRA-TAT-Pc 13 uptake in MCF-10A cells; (B) WT or CK2β-depleted MCF-10A cells were incubated with 50 µM TAT or TAT-Pc 13 for 8 h and the expression of CK2 subunits was evaluated by Western blot; (C) anti-CK2β immunoprecipitates were prepared from WT MCF-10A cells incubated with 50 µM TAT or TAT-Pc 13 for 2 h. Presence of CK2 subunits in the corresponding immunoprecipitates was determined by Western blot; (D) in situ proximity ligation images of MCF-10A cells incubated with 50 µM TAT (a,b,d) or TAT-Pc 13 (c) for 6 h. WT cells were incubated with CK2α antibody alone (a) or CK2α and CK2β antibodies (b,c). […]
PLA is an antibody-based method representing a reliable readout of molecular proximity of two antigens located on two distinct proteins. […] The fluorescent signal from each pair of PLA probes confirms a close proximity and not simply subcellular colocalization and can then be detected and quantified as fluorescent spots in microscopic images of the cells. […] No signal was detected in CK2β-depleted cells (panel d).
In situ PLAs were performed using a Duolink kit (Olink Bioscience, Uppsala, Sweden) according to the manufacturer’s instructions with some modifications. […] Images were observed using a Zeiss Apotome microscope and analyzed using a Zen Pro imaging software (Zeiss, Oberkochen, Germany). […]

T1 sequence (P68400 whole entry): as above

Turning to `CC[C@H](C)[C@@H]1NC(=O)[C@H](CCCCN)NC(=O)[C@H](Cc2ccccc2)NC(=O)CNC(=O)[C@H](Cc2ccc(O)cc2)NC(=O)[C@H](CC(C)C)NC(=O)[C@H](CCCNC(=N)N)NC(=O)CNC(=O)CNC(=O)[C@@H](NC(=O)[C@H](CCC(N)=O)NC(=O)[C@@H]2CCCN2C(=O)[C@@H]2CCCN2C(=O)[C@H](CCCNC(=N)N)NC(=O)[C@H](CCCNC(=N)N)NC(=O)[C@H](CCCNC(=N)N)NC(=O)[C@H](CCC(N)=O)NC(=O)[C@H](CCCNC(=N)N)NC(=O)[C@H](CCCNC(=N)N)NC(=O)[C@H](CCCCN)NC(=O)[C@H](CCCCN)NC(=O)[C@H](CCCNC(=N)N)NC(=O)CN)CCCCNC(=O)CNC(=O)CNC(=O)[C@H](Cc2c[nH]cn2)NC1=O` [TAT-Pc 13] (H-GRKKRRQRRRPPQKGGRLYGFKIHGG; lactam 14-C; N-terminus assumed), on CK2 holoenzyme, the CK2β-independent peptide phosphorylation entry is given as “significantly stimulated”. Also, the “number of CK2α/CK2β interaction dots” value in assay [1] is 2.2 ± 1.1 dots/cell.
